# Measured values reported in US10287301B2 (Achillion Pharmaceuticals, Inc., priority 2015, dated 2019).
# Where two headings read alike, the source gives them in different places.
# Molecular target: Human Factor D (Homo sapiens (Human), UniProt P00746)
# Test: Human Factor D Assay
# Type: biochemical
# Method in brief: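 Thioester cleavage assay: human Factor D (serum-derived, 80 nM final), substrate Z-L-Lys-SBzl with DTNB, both 100 μM final, after 5 min compound preincubation at room temperature.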
# [1] = Table 3, Human Factor D 80 nM, substrate Z-L-Lys-SBzl, read-out: IC50 (Stars)
# [2] = Human Factor D assay of Example 8, Table 2, read-out: IC50
# [3] = Human Factor D, Table 3, read-out: IC50
# [4] = Human Factor D 80 nM, substrate Z-L-Lys-SBzl, read-out: IC50
# Chain of Human Factor D (P00746 26-253): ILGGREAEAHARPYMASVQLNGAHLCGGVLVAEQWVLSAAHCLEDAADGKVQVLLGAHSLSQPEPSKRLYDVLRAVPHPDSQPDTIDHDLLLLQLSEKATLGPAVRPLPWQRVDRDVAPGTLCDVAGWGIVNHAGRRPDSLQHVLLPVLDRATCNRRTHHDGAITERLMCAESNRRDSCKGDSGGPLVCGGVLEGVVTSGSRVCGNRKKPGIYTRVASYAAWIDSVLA
smiles,measurement,setting,value
"CC(=O)c1nn(CC(=O)N2C[C@H](F)C[C@H]2C(=O)Nc2nc(Br)c(C)s2)c2ccc(-c3cnc(C)nc3)cc12 [Compound 449, (2S,4R)-1-(2-(3-Acetyl-5-(2-methylpyrimidin-5-yl)-1H-indazol-1-yl)acetyl)-N-(4-bromo-5-methylthiazol-2-yl)-4-fluoropyrrolidine-2-carboxamide]",IC50,[1],< 1000 nM
"CC(=O)c1nn(CC(=O)N2C[C@H](F)C[C@H]2C(=O)Nc2cnc(C)c(Br)n2)c2ccc(-c3cnc(C)nc3)cc12 [Compound 349, (2S,4R)-1-(2-(3-Acetyl-5-(2-methylpyrimidin-5-yl)-1H-indazol-1-yl)acetyl)-N-(6-bromo-5-methylpyrazin-2-yl)-4-fluoropyrrolidine-2-carboxamide]",IC50,[1],< 1000 nM
"CC(=O)c1nn(CC(=O)N2C[C@H](F)C[C@H]2C(=O)Nc2cccc(-c3cc(C(N)=O)ccc3Cl)c2F)c2ccc(-c3cnc(C)nc3)cc12 [Compound 198, (2S,4R)-1-(2-(3-acetyl-5-(2-methylpyrimidin-5-yl)-1H-indazol-1-yl)acetyl)-N-(5′-carbamoyl-2′-chloro-2-fluorobiphenyl-3-yl)-4-fluoropyrrolidine-2-carboxamide]",IC50,[2],< 1000 nM
"CC(=O)c1nn(CC(=O)N2C[C@H](F)C[C@H]2C(=O)Nc2cccc(OC(F)F)c2F)c2ccc(-c3cnc4ccnn4c3)cc12 [Compound 282, (2S,4R)-1-(2-(3-acetyl-5-(pyrazolo[1,5-a]pyrimidin-6-yl)-1H-indazol-1-yl)acetyl)-N-(3-(difluoromethoxy)-2-fluorophenyl)-4-fluoropyrrolidine-2-carboxamide]",IC50,[2],< 1000 nM
"CC(=O)c1nn(CC(=O)N2C[C@@](F)(CN(C)C)C[C@H]2C(=O)Nc2nc(Br)ccc2C)c2ccc(-c3cnc(C)nc3)cc12 [Compound 645, (2S,4S)-1-(2-(3-Acetyl-5-(2-methylpyrimidin-5-yl)-1H-indazol-1-yl)acetyl)-N-(6-bromo-3-methylpyridin-2-yl)-4-((dimethylamino)methyl)-4-fluoropyrrolidine-2-carboxamide]",IC50,[3],< 1000 nM
"CC(=O)c1nn(CC(=O)N2[C@@H]3C[C@@H]3C[C@H]2C(=O)Nc2cncc(Br)n2)c2ccc(-c3cnc(C)nc3)cc12 [Compound 350, (1R,3S,5R)-2-(2-(3-Acetyl-5-(2-methylpyrimidin-5-yl)-1H-indazol-1-yl)acetyl)-N-(6-bromopyrazin-2-yl)-2-azabicyclo[3.1.0]hexane-3-carboxamide]",IC50,[1],< 1000 nM
"CC(=O)c1nn(CC(=O)N2C[C@H](F)C[C@H]2C(=O)Nc2cccc(Br)n2)c2ccc(-c3cnc4cccnn34)cc12 [Compound 302, (2S,4R)-1-(2-(3-acetyl-5-(imidazo[1,2-b]pyridazin-3-yl)-1H-indazol-1-yl)acetyl)-N-(6-bromopyridin-2-yl)-4-fluoropyrrolidine-2-carboxamide]",IC50,[2],< 1000 nM
"CC(=O)c1cn(CC(=O)N2C[C@H](F)C[C@H]2C(=O)NC2CCCc3nc(-c4ccc(F)cc4)sc32)c2ccc(-c3ccnnc3)cc12 (stereo partly drawn) [Compound 106, (2S,4R)-1-(2-(3-acetyl-5-(pyridazin-4-yl)-1H-indol-1-yl)acetyl)-4-fluoro-N-(2-(4-fluorophenyl)-4,5,6,7-tetrahydrobenzo[d]thiazol-7-yl)pyrrolidine-2-carboxamide]",IC50,[4],> 10000 nM
"CC(=O)c1nn(CC(=O)N2C[C@H](F)C[C@H]2C(=O)Nc2cccc(Br)n2)c2ccc(-c3n[nH]c4ccsc34)cc12 [Compound 291, (2S,4R)-1-(2-(3-Acetyl-5-(1H-thieno[3,2-c]pyrazol-3-yl)-1H-indazol-1-yl)acetyl)-N-(6-bromopyridin-2-yl)-4-fluoropyrrolidine-2-carboxamide]",IC50,[2],< 1000 nM
"CNS(=O)(=O)c1ccc(Cl)c(-c2cccc(NC(=O)[C@@H]3C[C@@H](F)CN3C(=O)Cn3nc(C(C)=O)c4cc(-c5cnc(C)nc5)ccc43)c2F)c1 [Compound 342, (2S,4R)-1-(2-(3-Acetyl-5-(2-methylpyrimidin-5-yl)-1H-indazol-1-yl)acetyl)-N-(2′-chloro-2-fluoro-5′-(N-methylsulfamoyl)-[1,1′-biphenyl]-3-yl)-4-fluoropyrrolidine-2-carboxamide]",IC50,[1],< 1000 nM
"NC(=O)c1nn(CC(=O)N2[C@@H]3C[C@@H]3C[C@H]2C(=O)Nc2cccc(-c3ccccc3Cl)c2F)c2ccc(-c3cncnc3)cc12 [Compound 6, 1-(2-((1R,3S,5R)-3-((2′-Chloro-2-fluoro-[1,1′-biphenyl]-3-yl)carbamoyl)-azabicyclo[3.1.0]hexan-2-yl)-2-oxoethyl)-5-(pyrimidin-5-yl)-1H-indazole-3-carboxamide]",IC50,[4],< 1000 nM
"CC(=O)c1cn(CC(=O)N2C[C@H](F)C[C@H]2C(=O)Nc2cccc(-c3ccccc3Cl)c2F)c2ccc(-c3cnc(N4CCCC4)nc3)cc12 [Compound 26, (2S,4R)-1-(2-(3-acetyl-5-(2-(pyrrolidin-1-yl)pyrimidin-5-yl)-1H-indol-1-yl)acetyl)-N-(2′-chloro-2-fluorobiphenyl-3-yl)-4-fluoropyrrolidine-2-carboxamide]",IC50,[4],< 1000 nM
"CC(=O)c1nn(CC(=O)N2C[C@H](F)C[C@H]2C(=O)Nc2ccc(F)c(Br)n2)c2ccc(-c3cnc(N)nc3)cc12 [Compound 451, (2S,4R)-1-(2-(3-Acetyl-5-(2-aminopyrimidin-5-yl)-1H-indazol-1-yl)acetyl)-N-(6-bromo-5-fluoropyridin-2-yl)-4-fluoropyrrolidine-2-carboxamide]",IC50,[1],< 1000 nM
"Cc1ncc(-c2ccc3c(c2)c(C(=O)CO)nn3CC(=O)N2C[C@H](F)C[C@H]2C(=O)Nc2cccc(Br)n2)cn1 [Compound 440, (2S,4R)—N-(6-bromopyridin-2-yl)-4-fluoro-1-(2-(3-(2-hydroxyacetyl)-5-(2-methylpyrimidin-5-yl)-1H-indazol-1-yl)acetyl)pyrrolidine-2-carboxamide]",IC50,[1],< 1000 nM
"CC(=O)c1cn(CC(=O)N2C[C@H](F)C[C@H]2C(=O)Nc2noc(-c3ccccc3Cl)n2)c2ccc(-c3ccnnc3)cc12 [Compound 182, (2S,4R)-1-(2-(3-acetyl-5-(pyridazin-4-yl)-1H-indol-1-yl)acetyl)-N-(5-(2-chlorophenyl)-1,2,4-oxadiazol-3-yl)-4-fluoropyrrolidine-2-carboxamide]",IC50,[4],< 1000 nM
"COC(=O)c1ccc(Br)nc1NC(=O)[C@@H]1C[C@@H](F)CN1C(=O)Cn1nc(C(C)=O)c2cc(-c3cnc(C)nc3)ccc21 [Compound 607, Methyl 2-((2S,4R)-1-(2-(3-Acetyl-5-(2-methylpyrimidin-5-yl)-1H-indazol-1-yl)acetyl)-4-fluoropyrrolidine-2-carboxamido)-6-bromonicotinate]",IC50,[3],< 1000 nM
"Cc1cccc(NC(=O)[C@@H]2[C@H]3CC[C@H](C3)N2C(=O)Cn2cc(C(N)=O)c3cc(-c4ccc5ccccc5c4)ccc32)n1 [Compound 489, 1-(2-((1R,3S,4S)-3-((6-Methylpyridin-2-yl)carbamoyl)-2-azabicyclo[2.2.1]heptan-2-yl)-2-oxoethyl)-5-(naphthalen-2-yl)-1H-indole-3-carboxamide]",IC50,[1],> 10000 nM
"CC(=O)c1nn(CC(=O)N2[C@H](C)CC[C@H]2C(=O)Nc2nc(Br)ccc2C)c2ccc(-c3cnc(C)nc3)cc12 [Compound 731, (2S,5R)-1-(2-(3-Acetyl-5-(2-methylpyrimidin-5-yl)-1H-indazol-1-yl)acetyl)-N-(6-bromo-3-methylpyridin-2-yl)-5-methylpyrrolidine-2-carboxamide]",IC50,[3],< 1000 nM
"NC(=O)c1nn(CC(=O)N2C[C@H](F)C[C@H]2C(=O)Nc2cccc(Br)n2)c2ccc(-c3ccc(N4CCOCC4)cc3)cc12 [Compound 3, 1-(2-((2S,4R)-2-((6-Bromopyridin-2-yl)carbamoyl)-4-fluoropyrrolidin-1-yl)-2-oxoethyl)-5-(4-morphlinophenyl)-1H-indazole-3-carboxamide]",IC50,[4],< 1000 nM
"CC(=O)c1nn(CC(=O)N2CCC[C@H]2C(=O)Nc2cccc(C)n2)c2ccc(-c3ccc4cccnc4c3)cc12 [Compound 589, (S)-1-(2-(3-Acetyl-5-(quinolin-7-yl)-1H-indazol-1-yl)acetyl)-N-(6-methylpyridin-2-yl)pyrrolidine-2-carboxamide]",IC50,[3],< 1000 nM
"COc1ncc(-c2ccc3c(c2)c(C(C)=O)cn3CC(=O)N2[C@@H]3C[C@@H]3C[C@H]2C(=O)Nc2cccc(Br)n2)cn1 [Compound 81, (1R,3S,5R)-2-(2-(3-acetyl-5-(2-methoxypyrimidin-5-yl)-1H-indol-1-yl)acetyl)-N-(6-bromopyridin-2-yl)-2-azabicyclo[3.1.0] hexane-3-carboxamide]",IC50,[4],< 1000 nM
"COc1ncc(-c2ccc3c(c2)c(C(C)=O)cn3CC(=O)N2C[C@H](F)C[C@H]2C(=O)Nc2cccc(-c3ccccc3Cl)c2F)cn1 [Compound 27, (2S,4R)-1-(2-(3-acetyl-5-(2-methoxypyrimidin-5-yl)-1H-indol-1-yl)acetyl)-N-(2′-chloro-2-fluorobiphenyl-3-yl)-4-fluoropyrrolidine-2-carboxamide]",IC50,[4],< 1000 nM
NC(=O)c1nn(CC(=O)N2C[C@H](F)C[C@H]2C(=O)Nc2cccc(-c3ccccc3Cl)c2F)c2ccc(-c3cncnc3)cc12 [Compound 2],IC50,[4],< 1000 nM
"NC(=O)c1nn(CC(=O)N2C[C@H](F)C[C@H]2C(=O)Nc2ncc(I)cn2)c2ccc(-c3ccnnc3)cc12 [Compound 179, 1-(2-((2S,4R)-4-fluoro-2-(5-iodopyrimidin-2-ylcarbamoyl)pyrrolidin-1-yl)-2-oxoethyl)-5-(pyridazin-4-yl)-1H-indazole-3-carboxamide]",IC50,,1000 to 10000 nM
"CC(=O)c1nn(CC(=O)N2C[C@H](F)C[C@H]2C(=O)Nc2cccc(Br)n2)c2ccc(-c3cnc(S(C)(=O)=O)nc3)cc12 [Compound 521, (2S,4R)-1-(2-(3-Acetyl-5-(2-(methylsulfonyl)pyrimidin-5-yl)-1H-indazol-1-yl)acetyl)-N-(6-bromopyridin-2-yl)-4-fluoropyrrolidine-2-carboxamide]",IC50,[1],< 1000 nM
